The assay concerns the target T1, human α7 nAChR stably expressed in a HEK cell line (with human RIC-3) (Homo sapiens, UniProt P36544).
T1 construct: PrecisION hnAChR α7/RIC-3
The assay is described as follows: Automated patch-clamp electrophysiology functional assay (Assay A), IonFlux HT, whole-cell population patch. In kind it is cell-based. On the procedure: The α7 nAChR positive allosteric modulator (PAM) activity of the present compounds may be tested using assays known in the art. The α7 nAChR PAMs described herein have activities in an automated patch-clamp electrophysiology functional assay as described in the examples. The assay was performed using the IonFlux HT in a whole-cell, population patch configuration. See Golden et al. Assay Drug Dev. Technol. (2011) 9:608-619. The compounds were assessed for their ability to modulate the function of the human α7 nAChR stably expressed in a HEK cell line both in the presence, and in the absence of the natural α7 agonist acetylcholine. By performing a series of such measurements at different concentrations, the effective concentration of the α7 nAChR PAMs (EC50) was determined. See Spencer et al. Assay Drug Dev. Technol. (2012) 10:313-324.
Direct activation of α7 (agonism), and potentiation of 5 acetylcholine-evoked α7 currents was determined as follows:
Automated Patch-Clamp Electrophysiology Functional Assay (Assay A)
Automated patch-clamp electrophysiology was performed using the IonFlux HT (Fluxion Biosciences Inc., San Francisco, Calif.) in the whole-cell, population patch configuration. Test compounds were assessed for their ability to modulate the function of the α7 nicotinic acetylcholine receptor both in the presence, and in the absence of the natural α7 agonist acetylcholine. A HEK cell line stably expressing both human RIC-3 and human α7 (PrecisION hnAChR α7/RIC-3, Eurofins Pharma, St. Charles, Mo.) was cultured in 175 cm^2 triple-layer tissue culture flasks to no more than 90% confluency in DMEM/F-12 growth media supplemented with 10% heat-inactivated fetal bovine serum, 1% non-essential amino acids, 0.625 μg/mL Puromycin, and 400 μg/mL Geneticin. Immediately prior to assay, cells were detached by first aspirating growth media, rinsing with Dulbecco's phosphate buffered saline, and then adding 10 mL of Accutase (Innovative Cell Technologies, San Diego, Calif.) to the flask and then incubating at 37° C. for 5 minutes. Detached cells were then recovered by the addition of 40 mL of CHO-serum-free media supplemented with 25 mM HEPES, and rocked gently in a 50 mL conical tube for 20 minutes prior to patch-clamp assay. After recovery, cells were pelleted by centrifugation at 1,000 RPM for 1 minute in a compact bench top centrifuge; recovery media was aspirated and cells were resuspended in external recording solution (150 mM NaCl, 5 mM KCl, 2 mM CaCl2, 1 mM MgCl2, 10 mM HEPES, 12 mM dextrose) to a density of 5.0×10^6 cells/mL. The cell suspension was added to the cell inlet wells on an IonFlux HT population patch plate which had previously been rinsed and primed with deionized H2O. Test compounds were serially diluted in DMSO and then resuspended to the final test concentration in external recording solution, with, or without […] acetylcholine added to the external recording solution; test compounds were then transferred to the IonFlux HT population patch plate. Internal recording solution (110 mM TrisPO4, 28 mM TrisBase, 0.1 mM CaCl2, 2 mM MgCl2, 11 mM EGTA, 4 mM MgATP) was added to the internal recording solution inlet wells on the IonFlux HT patch plate previously loaded with cells and test compounds, and the plate loaded into the IonFlux HT instrument. A protocol was executed on the IonFlux HT to trap the cells, break into the cells, and establish the whole-cell recording configuration; cells were voltage-clamped at a holding potential of −60 mV for the duration of the experiment, all experiments were conducted at room temperature, and the IonFlux HT injection pressure was 8 psi for solution applications. Upon establishing the whole-cell configuration, external recording solution was perfused into the recording chambers for 120 seconds and then 40 μM acetylcholine was applied for 1 second and immediately washed off with external recording solution for 60 seconds. […]
A general note: In patch-clamp work, channel activity is measured electrically.

Where [1] appears, read: automated patch-clamp electrophysiology functional assay (Assay A), potency class by EC50, read-out: α7 nAChR Potency.
[2] abbreviates: electrophysiology EC50, HEK cells expressing human α7/RIC-3, 40 μM acetylcholine, holding potential −60 mV, room temperature, read-out: α7 nAChR EC50.

Like-named read-outs stand apart in the source and are kept apart here.

T1 sequence (P36544 23-502): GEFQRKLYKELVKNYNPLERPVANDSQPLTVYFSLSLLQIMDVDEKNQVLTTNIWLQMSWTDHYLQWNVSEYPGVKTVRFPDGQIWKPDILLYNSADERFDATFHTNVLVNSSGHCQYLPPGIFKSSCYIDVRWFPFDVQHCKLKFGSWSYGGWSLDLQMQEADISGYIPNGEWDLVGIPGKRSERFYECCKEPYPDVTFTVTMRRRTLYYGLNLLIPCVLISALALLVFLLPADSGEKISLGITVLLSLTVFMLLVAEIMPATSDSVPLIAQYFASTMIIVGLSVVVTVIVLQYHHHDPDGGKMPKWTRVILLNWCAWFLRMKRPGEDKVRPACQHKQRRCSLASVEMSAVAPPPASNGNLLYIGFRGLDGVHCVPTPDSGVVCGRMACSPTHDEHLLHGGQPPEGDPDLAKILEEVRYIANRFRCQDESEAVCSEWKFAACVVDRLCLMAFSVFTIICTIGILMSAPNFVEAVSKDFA

In the case of `CC1C(c2ccc(S(N)(=O)=O)cc2)C1c1nc(-c2ccccc2)no1` (single isomer, unassigned) [Example M2], the EC50 is, setting by setting: under setting [1], 500 to 5000 nM; under setting [2], 1700 nM. On the same counts, the results for `C#Cc1ccc(-c2nc([C@H]3[C@H](c4ccc(S(N)(=O)=O)cc4)C3(C)C)no2)cc1` [Example H11] are 500 to 5000 nM and 1900 nM. The like results for `CC1(C)[C@H](c2ccc(S(N)(=O)=O)cc2)[C@H]1c1nc(C2CCC2)no1` [Example B3] were, in that order, 5000 to 50000 nM and 8700 nM. In the case of `CC1(C)[C@@H](c2ccc(S(N)(=O)=O)cc2)[C@@H]1c1nc(C2CC2)no1` [Example D9], the EC50 under setting [1] is 100 to 500 nM. On to `CC1(C)[C@@H](c2ccc(S(N)(=O)=O)cc2)[C@@H]1c1nc(C2CCCC2)no1` [Example D20], for which the EC50 runs as follows: under setting [1], no more than 100 nM; under setting [2], 69 nM. Turning to `NS(=O)(=O)c1ccc([C@@H]2[C@@H](c3nc(C4CCCC4)no3)C2(F)F)cc1` [Example B19], the EC50 runs as follows: under setting [1], 100 to 500 nM; under setting [2], 370 nM. Regarding `CC1(C)[C@@H](c2ccc(S(N)(=O)=O)cc2)[C@@H]1c1nnc(-c2cccc(C(F)(F)F)c2)o1` [Example G2], the EC50 under setting [1] was 500 to 5000 nM. Still for that read-out and setting: the same measure for `CC1(C)[C@H](c2ccc(S(N)(=O)=O)cc2)[C@H]1c1nc(C2CCCC2)co1` [Example J8]: 500 to 5000 nM.

`NS(=O)(=O)c1ccc([C@@H]2C[C@H]2c2ccn(Cc3cccc(F)c3)n2)cc1` [Example 23, 4-{(1R,2R)-2-[1-(3-Fluorobenzyl)-1H-pyrazol-3-yl]cyclopropyl}benzenesulfonamide]: the EC50 runs as follows: under setting [1], 100 to 500 nM; under setting [2], 460 nM. Consider `CC1(C)[C@@H](c2ccc(S(N)(=O)=O)cc2)[C@@H]1c1noc(-c2ccc(OC(F)(F)F)cc2)n1` [Example H13], for which the EC50 under setting [1] was 500 to 5000 nM. As to `CC1(C)[C@@H](c2ccc(S(N)(=O)=O)cc2)[C@@H]1c1noc(-c2cnccc2C(F)(F)F)n1` [Example I20], the EC50 under setting [1] is 100 to 500 nM. As to `NS(=O)(=O)c1ccc([C@@H]2C[C@H]2c2nc(-c3cccnc3C3CC3)no2)cc1` [Example D24], the EC50 is, setting by setting: under setting [1], 100 to 500 nM; under setting [2], 230 nM. Regarding `CC1(C)C(c2ccc(S(N)(=O)=O)cc2)C1c1noc(C2CC3CN(C4CCCC4)C(=O)C3C2)n1` (centres unmarked) [Example I24], the EC50 is, setting by setting: under setting [1], 500 to 5000 nM; under setting [2], 4400 nM.

On to `CC1(C)[C@H](c2ccc(S(N)(=O)=O)cc2)[C@H]1c1nc(C2CCc3cc(F)ccc32)no1` (some centres unmarked) [Example B14], for which the EC50 under setting [1] was in the range of 500 to 5000 nM and the EC50 under setting [2] came out at 1200 nM. The like results for `NS(=O)(=O)c1ccc([C@@H]2[C@@H](c3nc(-c4cccc(F)c4)no3)C2(Cl)Cl)cc1` (relative stereo) [Example 36, 4-{trans-2,2-Dichloro-3-[3-(3-fluorophenyl)-1,2,4-oxadiazol-5-yl]cyclopropyl}benzenesulfonamide] were, in that order, 100 to 500 nM and 470 nM. The like results for `CC1(C)[C@H](c2ccc(S(N)(=O)=O)cc2)[C@H]1c1cnc(-c2ccccc2)o1` [Example 10, 4-[(1R,3R)-2,2-Dimethyl-3-(2-phenyl-1,3-oxazol-5-yl)cyclopropyl]benzenesulfonamide] were, in that order, 500 to 5000 nM and 1200 nM. For `CC1(C)[C@@H](c2ccc(S(N)(=O)=O)cc2)[C@@H]1c1noc(-c2cccc(C3CC3)c2)n1` [Example H9], the EC50 under setting [1] fell in the range of 500 to 5000 nM and the EC50 under setting [2] was 1400 nM. As for `Cc1noc([C@H]2[C@H](c3ccc(S(N)(=O)=O)cc3)C2(C)C)n1` [Example D13], the EC50 was 5000 to 50000 nM under setting [1] and 6000 nM under setting [2]. On to `CC1(C)[C@@H](c2ccc(S(N)(=O)=O)cc2)[C@@H]1c1csc(C2CCCC2)n1` [Example L15], for which the EC50 is 100 to 500 nM under setting [1] and 370 nM under setting [2]. On the same counts, the results for `NS(=O)(=O)c1ccc([C@@H]2C[C@H]2c2nc(-c3cncc(F)c3)no2)cc1` [Example D12] are 500 to 5000 nM and 800 nM. `CC1(C)[C@@H](c2ccc(S(N)(=O)=O)cc2)[C@@H]1c1nc(-c2ccccc2)no1` [Example C4]: the EC50 is, setting by setting: under setting [1], 100 to 500 nM; under setting [2], 370 nM. For the compound `NS(=O)(=O)c1ccc([C@H]2[C@H](c3nc(C4CCCCC4)cs3)C2(F)F)cc1` [Example K19], the EC50 under setting [1] fell in the range of 100 to 500 nM and the EC50 under setting [2] is 160 nM. Take `CC1(C)[C@@H](c2ccc(S(N)(=O)=O)cc2)[C@@H]1c1noc(C2(c3cc(F)ccc3F)CCC2)n1` [Example I4]: the EC50 runs as follows: under setting [1], 100 to 500 nM; under setting [2], 170 nM. On the same counts, the results for `CC1(C)[C@@H](c2ccc(S(N)(=O)=O)cc2)[C@@H]1c1noc(-c2ccc(F)cc2Cl)n1` [Example H2] are 500 to 5000 nM and 510 nM. The like results for `CC1(C)[C@@H](c2ccc(S(N)(=O)=O)cc2)[C@@H]1c1noc(-c2c(F)cccc2F)n1` [Example H8] were, in that order, 100 to 500 nM and 110 nM. For `CC(C)c1nnc([C@H]2[C@H](c3ccc(S(N)(=O)=O)cc3)C2(C)C)o1` [Example G9], the EC50 under setting [1] is 500 to 5000 nM. In the case of `NS(=O)(=O)c1ccc([C@H]2[C@H](c3nc(-c4ccccc4)no3)C2(F)F)cc1` [Example C21], the EC50 reads like this: under setting [1], no more than 100 nM; under setting [2], 83 nM.

Regarding `NS(=O)(=O)c1ccc([C@@H]2C[C@H]2c2nc(-c3ccccc3F)no2)cc1` [Example C20], the EC50 under setting [1] fell in the range of 100 to 500 nM.

Consider `NS(=O)(=O)c1ccc([C@@H]2C[C@H]2c2nc(-c3ccc(F)cc3F)no2)cc1` [Example C13], for which the EC50 by setting is: under setting [1], 100 to 500 nM; under setting [2], 160 nM. On the same counts, the results for `CC1(C)[C@@H](c2ccc(S(N)(=O)=O)cc2)[C@@H]1c1noc(-c2cccc(F)c2)n1` [Example H5] are 500 to 5000 nM and 1500 nM. Consider `NS(=O)(=O)c1ccc([C@@H]2[C@@H](c3nc(-c4ccccc4)no3)C2(F)F)cc1` [Example A9], for which, under setting [1], the EC50 was 500 to 5000 nM. Turning to `CC1(C)[C@@H](c2ccc(S(N)(=O)=O)cc2)[C@@H]1c1nc(C2CCCCC2)no1` [Example D3], the EC50 was 100 to 500 nM under setting [1] and 150 nM under setting [2]. For `NS(=O)(=O)c1ccc([C@@H]2C[C@H]2c2nc(-c3cc(F)ccc3C(F)(F)F)no2)cc1` [Example C8], the EC50 runs as follows: under setting [1], 100 to 500 nM; under setting [2], 500 nM. `NS(=O)(=O)c1ccc([C@H]2C[C@@H]2c2cnc(-c3ccccc3)s2)cc1` [Example L22]: the EC50 under setting [1] lay within 500 to 5000 nM. On the same count and under the same terms, next, `CC1(C)C(c2nc(-c3ccccc3)no2)C1c1ccc(S(N)(=O)=O)cc1F` (single isomer, unassigned) [Example M7]: 500 to 5000 nM. As for `NS(=O)(=O)c1ccc([C@@H]2C[C@H]2c2ncc(-c3cccc(F)c3)s2)cc1` [Example K20], the EC50 under setting [1] was 100 to 500 nM.

Regarding `CC1(C)[C@H](c2ccc(S(N)(=O)=O)cc2)[C@H]1c1nc(-c2ccc(F)cc2F)co1` [Example J2], the EC50 reads like this: under setting [1], 500 to 5000 nM; under setting [2], 730 nM. For the compound `NS(=O)(=O)c1ccc([C@@H]2C[C@H]2c2nsc(C3CCCCC3)n2)cc1` [Example L11], the EC50 under setting [1] fell in the range of 100 to 500 nM. Regarding `CC1(C)[C@@H](c2ccc(S(N)(=O)=O)cc2)[C@@H]1c1noc(C2CCC(O)CC2)n1` (some centres unmarked) [Example I29], the EC50 is, setting by setting: under setting [1], 5000 to 50000 nM; under setting [2], 6800 nM.

For the compound `CC1(C)[C@@H](c2ccc(S(N)(=O)=O)cc2)[C@@H]1c1noc(-c2cc(F)cc(F)c2F)n1` [Example H10], the EC50 under setting [1] lay within 100 to 500 nM and the EC50 under setting [2] was found to be 240 nM.

The values are drawn from patent publication US9840481B2, “Allosteric modulators of nicotinic acetylcholine receptors” (MERCK SHARP & DOHME CORP., priority 2016, dated 2017).
